Literature values as cited in patent publication US20040067256A1, “Novel modified release formulation” (priority 2001, published 2004).
Where two headings read alike, the source gives them in different places.

Conditions: ambient temperature of 22-25° C.

| Structure (SMILES) | water-solubility (physiological pH) | water-solubility |
| --- | --- | --- |
| CC(O)(CS(=O)(=O)c1ccc(F)cc1)C(=O)Nc1ccc(C#N)c(C(F)(F)F)c1 (racemic) [bicalutamide, 4′-cyano-α′,α′,α′-trifluoro-3-(4-fluorophenylsulphonyl)-2-hydroxy-2-methylpropiono-m-toluidide] | about 0.0046 mg/ml |  |
| CCOC(=O)C1=C(C)NC(C)=C(C(=O)OC)C1c1cccc(Cl)c1Cl (centres unmarked) [Felodipine, 2,6-dimethyl-4-(2,3-dichlorophenyl)-1,4-dihydropyridine-3,5-dicarboxylic acid-3-methyl ester-5-ethyl ester] |  | about 0.5 μg/ml |
